Reference: ChEMBL document CHEMBL1140360, “Synthesis and biological activity of 3,4-dihydroquinazolines for selective T-type Ca2+ channel blockers” (Bioorg Med Chem Lett, 2005)
pIC50: −log10 of the molar value.

Legend:
Type in all cases: cell-based
[1] = system: HEK293; assay: Selectivity for T-type and N-type [Ca2+] channels expressed in HEK293 cells at 10 uM; conditions: Homo sapiens
[2] = molecular target: Voltage-dependent N-type calcium channel subunit alpha-1B (Homo sapiens) (UniProt Q00975); assay: Percent inhibition of N-type [Ca2+] channel (Alpha-1B) expressed in HEK293 cells at 10 uM
[3] = molecular target: T1, Voltage-dependent T-type calcium channel subunit alpha-1G (Homo sapiens, UniProt O43497); assay: Percent inhibition of T-type [Ca2+] channel (alpha1G) expressed in HEK293 cells at 10 uM
[4] = molecular target: Voltage-dependent T-type calcium channel subunit alpha-1H (Homo sapiens) (UniProt O95180); assay: Percent inhibition of T-type [Ca2+] channel (alpha1H) stably expressed in Xenopus oocytes at 100 uM; conditions: Oocyte
[5] = molecular target: T1, Voltage-dependent T-type calcium channel subunit alpha-1G; assay: Inhibition of T-type [Ca2+] channel (alpha1G) expressed in HEK293 cells
[6] = molecular target: Voltage-dependent N-type calcium channel subunit alpha-1B (Homo sapiens) (UniProt Q00975); assay: Percent inhibition of N-type [Ca2+] channel (Alpha-1B) expressed in HEK293 cells at 10 uM; No blocking

T1 sequence (O43497 whole entry): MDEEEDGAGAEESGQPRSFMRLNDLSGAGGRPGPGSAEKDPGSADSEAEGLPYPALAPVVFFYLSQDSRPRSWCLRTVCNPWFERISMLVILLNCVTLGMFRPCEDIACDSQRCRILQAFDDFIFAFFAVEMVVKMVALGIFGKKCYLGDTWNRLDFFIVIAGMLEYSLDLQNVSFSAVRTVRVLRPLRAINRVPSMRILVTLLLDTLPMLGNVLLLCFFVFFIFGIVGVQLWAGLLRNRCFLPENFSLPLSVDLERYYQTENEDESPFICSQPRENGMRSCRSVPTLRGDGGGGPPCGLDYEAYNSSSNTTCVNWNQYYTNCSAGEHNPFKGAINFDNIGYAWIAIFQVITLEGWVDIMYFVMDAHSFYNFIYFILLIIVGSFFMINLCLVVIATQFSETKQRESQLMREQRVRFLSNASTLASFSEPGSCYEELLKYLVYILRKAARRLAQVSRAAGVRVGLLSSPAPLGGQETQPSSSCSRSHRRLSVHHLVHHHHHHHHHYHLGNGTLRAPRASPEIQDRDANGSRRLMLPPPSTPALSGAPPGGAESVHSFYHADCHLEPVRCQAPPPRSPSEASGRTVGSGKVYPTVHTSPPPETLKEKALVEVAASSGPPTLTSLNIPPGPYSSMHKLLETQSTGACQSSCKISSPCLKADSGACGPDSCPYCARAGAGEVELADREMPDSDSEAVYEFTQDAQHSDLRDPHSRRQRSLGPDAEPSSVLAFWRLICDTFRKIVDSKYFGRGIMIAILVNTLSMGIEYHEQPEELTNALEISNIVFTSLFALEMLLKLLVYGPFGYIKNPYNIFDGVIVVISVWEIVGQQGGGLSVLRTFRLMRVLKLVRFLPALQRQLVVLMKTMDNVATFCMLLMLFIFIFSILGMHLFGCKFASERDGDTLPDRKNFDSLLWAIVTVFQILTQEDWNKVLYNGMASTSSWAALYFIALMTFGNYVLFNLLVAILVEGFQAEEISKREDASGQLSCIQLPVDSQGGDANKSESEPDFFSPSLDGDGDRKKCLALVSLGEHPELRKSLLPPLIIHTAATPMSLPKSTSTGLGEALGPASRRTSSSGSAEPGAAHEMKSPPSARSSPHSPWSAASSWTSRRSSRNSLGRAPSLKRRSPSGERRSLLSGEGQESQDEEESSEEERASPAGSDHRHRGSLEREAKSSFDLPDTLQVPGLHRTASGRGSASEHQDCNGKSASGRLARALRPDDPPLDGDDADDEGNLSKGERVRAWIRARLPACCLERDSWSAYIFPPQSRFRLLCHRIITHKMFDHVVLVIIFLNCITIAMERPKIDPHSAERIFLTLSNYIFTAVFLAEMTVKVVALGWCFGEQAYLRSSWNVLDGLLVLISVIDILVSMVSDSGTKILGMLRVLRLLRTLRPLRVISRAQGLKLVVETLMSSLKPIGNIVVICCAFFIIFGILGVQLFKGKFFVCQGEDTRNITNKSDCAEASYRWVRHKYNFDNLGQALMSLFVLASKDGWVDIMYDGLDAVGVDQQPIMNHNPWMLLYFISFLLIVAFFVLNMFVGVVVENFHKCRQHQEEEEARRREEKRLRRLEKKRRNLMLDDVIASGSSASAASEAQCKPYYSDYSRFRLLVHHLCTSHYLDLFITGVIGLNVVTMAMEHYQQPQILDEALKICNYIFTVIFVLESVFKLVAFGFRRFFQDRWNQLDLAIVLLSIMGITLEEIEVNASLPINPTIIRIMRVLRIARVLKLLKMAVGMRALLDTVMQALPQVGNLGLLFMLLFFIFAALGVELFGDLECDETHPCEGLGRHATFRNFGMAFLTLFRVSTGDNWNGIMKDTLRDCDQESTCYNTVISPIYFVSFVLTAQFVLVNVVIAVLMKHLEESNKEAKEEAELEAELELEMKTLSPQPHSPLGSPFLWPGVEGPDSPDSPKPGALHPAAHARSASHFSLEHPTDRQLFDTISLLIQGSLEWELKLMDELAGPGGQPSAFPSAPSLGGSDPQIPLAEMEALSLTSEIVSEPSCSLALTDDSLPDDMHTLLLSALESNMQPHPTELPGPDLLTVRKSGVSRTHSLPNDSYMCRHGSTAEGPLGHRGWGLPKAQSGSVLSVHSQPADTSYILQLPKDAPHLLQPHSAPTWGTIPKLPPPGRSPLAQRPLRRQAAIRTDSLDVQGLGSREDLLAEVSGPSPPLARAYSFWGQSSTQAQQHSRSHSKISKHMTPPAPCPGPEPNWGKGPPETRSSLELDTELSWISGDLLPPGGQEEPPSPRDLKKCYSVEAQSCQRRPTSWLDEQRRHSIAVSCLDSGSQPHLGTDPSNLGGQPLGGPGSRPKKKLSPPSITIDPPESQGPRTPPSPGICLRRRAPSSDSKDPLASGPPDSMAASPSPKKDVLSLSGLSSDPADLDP
Sequence of Voltage-dependent T-type calcium channel subunit alpha-1H (Homo sapiens) (O95180 whole entry): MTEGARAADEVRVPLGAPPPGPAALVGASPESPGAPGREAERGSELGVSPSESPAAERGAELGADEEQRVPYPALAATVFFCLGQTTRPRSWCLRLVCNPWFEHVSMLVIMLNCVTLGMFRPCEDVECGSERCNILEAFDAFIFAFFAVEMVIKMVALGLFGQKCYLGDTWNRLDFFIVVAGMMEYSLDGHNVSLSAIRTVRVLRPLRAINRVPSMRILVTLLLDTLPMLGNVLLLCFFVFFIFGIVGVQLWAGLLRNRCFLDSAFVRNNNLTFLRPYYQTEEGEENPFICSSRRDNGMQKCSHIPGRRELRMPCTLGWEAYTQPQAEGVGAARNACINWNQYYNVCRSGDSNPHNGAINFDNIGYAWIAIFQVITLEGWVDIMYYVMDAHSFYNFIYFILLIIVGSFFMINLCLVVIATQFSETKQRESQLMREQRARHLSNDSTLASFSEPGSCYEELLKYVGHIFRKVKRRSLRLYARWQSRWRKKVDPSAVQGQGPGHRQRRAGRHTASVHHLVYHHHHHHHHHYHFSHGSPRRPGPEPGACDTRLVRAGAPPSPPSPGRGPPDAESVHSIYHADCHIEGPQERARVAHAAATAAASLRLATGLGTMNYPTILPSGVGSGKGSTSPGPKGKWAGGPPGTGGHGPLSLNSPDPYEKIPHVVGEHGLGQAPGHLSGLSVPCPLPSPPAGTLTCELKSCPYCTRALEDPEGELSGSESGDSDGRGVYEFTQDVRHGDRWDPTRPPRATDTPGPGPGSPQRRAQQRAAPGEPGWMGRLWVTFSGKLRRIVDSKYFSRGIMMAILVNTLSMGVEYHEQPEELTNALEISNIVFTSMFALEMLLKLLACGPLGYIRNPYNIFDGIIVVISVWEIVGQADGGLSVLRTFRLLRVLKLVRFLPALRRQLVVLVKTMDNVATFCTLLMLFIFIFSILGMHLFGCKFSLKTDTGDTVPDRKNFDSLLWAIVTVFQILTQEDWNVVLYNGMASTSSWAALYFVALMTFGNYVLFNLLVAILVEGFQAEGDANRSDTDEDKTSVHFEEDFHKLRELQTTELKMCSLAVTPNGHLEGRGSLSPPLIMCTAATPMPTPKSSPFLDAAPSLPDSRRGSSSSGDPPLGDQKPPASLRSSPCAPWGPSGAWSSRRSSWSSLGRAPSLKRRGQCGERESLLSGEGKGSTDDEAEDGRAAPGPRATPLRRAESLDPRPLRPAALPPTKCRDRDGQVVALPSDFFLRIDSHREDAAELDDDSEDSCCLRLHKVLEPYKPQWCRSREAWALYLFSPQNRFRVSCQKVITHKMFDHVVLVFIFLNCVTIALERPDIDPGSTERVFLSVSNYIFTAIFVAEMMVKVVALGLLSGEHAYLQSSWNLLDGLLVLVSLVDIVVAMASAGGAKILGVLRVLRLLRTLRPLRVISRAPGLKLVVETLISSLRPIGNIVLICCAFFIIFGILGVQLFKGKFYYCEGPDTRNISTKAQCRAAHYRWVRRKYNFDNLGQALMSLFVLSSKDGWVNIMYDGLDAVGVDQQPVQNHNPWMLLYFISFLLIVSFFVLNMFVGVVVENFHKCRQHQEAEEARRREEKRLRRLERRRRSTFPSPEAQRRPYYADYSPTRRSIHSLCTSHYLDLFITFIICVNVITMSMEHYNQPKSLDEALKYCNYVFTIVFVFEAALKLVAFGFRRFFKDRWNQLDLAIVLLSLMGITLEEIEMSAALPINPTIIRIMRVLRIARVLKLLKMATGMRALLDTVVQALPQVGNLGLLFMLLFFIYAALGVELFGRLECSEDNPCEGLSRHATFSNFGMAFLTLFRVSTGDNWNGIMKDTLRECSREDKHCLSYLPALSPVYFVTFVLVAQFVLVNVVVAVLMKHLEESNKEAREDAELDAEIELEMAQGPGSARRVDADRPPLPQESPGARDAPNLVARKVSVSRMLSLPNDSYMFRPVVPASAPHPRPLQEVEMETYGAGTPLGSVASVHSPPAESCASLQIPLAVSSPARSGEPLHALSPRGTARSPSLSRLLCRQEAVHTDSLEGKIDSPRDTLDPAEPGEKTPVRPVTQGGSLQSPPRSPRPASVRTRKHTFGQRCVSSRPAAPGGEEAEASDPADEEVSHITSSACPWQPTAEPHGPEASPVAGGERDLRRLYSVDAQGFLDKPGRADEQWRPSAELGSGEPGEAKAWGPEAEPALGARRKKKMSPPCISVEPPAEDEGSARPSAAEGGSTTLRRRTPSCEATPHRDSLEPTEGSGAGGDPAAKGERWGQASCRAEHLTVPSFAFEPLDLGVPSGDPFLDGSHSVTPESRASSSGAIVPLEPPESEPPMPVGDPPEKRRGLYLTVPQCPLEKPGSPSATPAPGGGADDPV

inhibition [2]	inhibition [3]	inhibition [4]	pIC50 [5]	inhibition [6]	Structure (SMILES)	Selectivity [1]
16.6%	88.3%	84.2%	6.80		CC(C)(C)OC(=O)NCCCCCNC1=Nc2ccccc2C(CC(=O)NCc2ccccc2)N1c1ccc(-c2ccccc2)cc1 (configuration not stated)	5.3
			6.77		Cc1ccc(S(=O)(=O)Nc2ccc(CNC(=O)CC3c4ccccc4N=C(N4CCCCC4)N3c3ccccc3)cc2)cc1 (configuration not stated)	
98.6%	86.5%	92.2%	6.17		COC(=O)CC1c2ccccc2N=C(NCCCCCNC(=O)OC(C)(C)C)N1c1ccc(-c2ccccc2)cc1 (configuration not stated)	0.9
94.9%	88.5%	96.5%	6.43		COC(=O)CC1c2ccccc2N=C(Nc2ccc(-c3ccccc3)cc2)N1CCCCCNC(=O)OC(C)(C)C (configuration not stated)	0.9
			6.96		O=C(CC1c2ccccc2N=C(N2CCCCC2)N1c1ccccc1)NCc1ccc(NS(=O)(=O)c2ccc(F)cc2)cc1 (configuration not stated)	
15.2%	91.8%	97%	6.85		NCCCCCN1C(Nc2ccc(-c3ccccc3)cc2)=Nc2ccccc2C1CC(=O)NCc1ccccc1 (configuration not stated)	6

Further lines, the compound ahead of its results:

Structure (SMILES)	inhibition [2]	inhibition [3]	inhibition [4]	pIC50 [5]	inhibition [6]	Selectivity [1]
CC(C)(C)OC(=O)NCCCCCN1C(Nc2ccc(-c3ccccc3)cc2)=Nc2ccccc2C1CC(=O)NCc1ccccc1 (configuration not stated)	30.1%	88.5%	91.2%	6.77		2.9
COCC(=O)O[C@]1(CCN(C)CCCc2nc3ccccc3[nH]2)CCc2cc(F)ccc2[C@@H]1C(C)C	67.6%					
NCCCCCNC1=Nc2ccccc2C(CC(=O)NCc2ccccc2)N1c1ccc(-c2ccccc2)cc1 (configuration not stated)	8.3%	83.8%	80.1%	6.89		10.1
COC(=O)CC1c2ccccc2N=C(NCCCCCN)N1c1ccc(-c2ccccc2)cc1 (configuration not stated)		82.5%	97%		< 1%	
O=C(CC1c2ccccc2N=C(N2CCCCC2)N1c1ccccc1)NCc1ccccc1 (configuration not stated)				5.94		
COC(=O)CC1c2ccccc2N=C(Nc2ccc(-c3ccccc3)cc2)N1CCCCCN (configuration not stated)	7.5%	84.1%	94.6%	6.52		11.2
